From the supplement of paper PMC11451515

Tested on: P12-Ichikawa
Experiment: cell viability relative to DMSO control; higher = less cytotoxic
Conditions: 48 h
Summary of the method: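 Leukemia cells (NOMO1 or SEM, 500 cells/well; P12-Ichikawa, 1000 cells/well) were seeded in 5 μl in 1536-well plates after at least four passages of adaptation to each medium. They received library compounds in DMSO by pin dosing, 11 threefold points from 47 μM to 0.79 nM. Luminescence with CellTiter-Glo One was read after 48 h at 37°C. Viability is stated per plate relative to DMSO wells, with cell-free wells as background.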

[1] = HPLM + 10% dialyzed FBS, 0.000781 µM
[2] = HPLM + 10% dialyzed FBS, 0.00234 µM
[3] = HPLM + 10% dialyzed FBS, 0.00702 µM
[4] = HPLM + 10% dialyzed FBS, 0.0211 µM
[5] = HPLM + 10% dialyzed FBS, 0.0632 µM
[6] = HPLM + 10% dialyzed FBS, 0.19 µM
[7] = HPLM + 10% dialyzed FBS, 0.569 µM
[8] = HPLM + 10% dialyzed FBS, 1.71 µM
[9] = HPLM + 10% dialyzed FBS, 5.12 µM
[10] = HPLM + 10% dialyzed FBS, 15.4 µM
[11] = HPLM + 10% dialyzed FBS, 46.1 µM
[12] = RPMI 5 mM glucose + 10% FBS, 0.000781 µM
[13] = RPMI 5 mM glucose + 10% FBS, 0.00234 µM
[14] = RPMI 5 mM glucose + 10% FBS, 0.00702 µM
[15] = RPMI 5 mM glucose + 10% FBS, 0.0211 µM
[16] = RPMI 5 mM glucose + 10% FBS, 0.0632 µM
[17] = RPMI 5 mM glucose + 10% FBS, 0.19 µM
[18] = RPMI 5 mM glucose + 10% FBS, 0.569 µM
[19] = RPMI 5 mM glucose + 10% FBS, 1.71 µM
[20] = RPMI 5 mM glucose + 10% FBS, 5.12 µM
[21] = RPMI 5 mM glucose + 10% FBS, 15.4 µM
[22] = RPMI 5 mM glucose + 10% FBS, 46.1 µM
[23] = RPMI 5 mM glucose + 10% dialyzed FBS, 0.000781 µM
[24] = RPMI 5 mM glucose + 10% dialyzed FBS, 0.00234 µM
[25] = RPMI 5 mM glucose + 10% dialyzed FBS, 0.00702 µM
[26] = RPMI 5 mM glucose + 10% dialyzed FBS, 0.0211 µM
[27] = RPMI 5 mM glucose + 10% dialyzed FBS, 0.0632 µM
[28] = RPMI 5 mM glucose + 10% dialyzed FBS, 0.19 µM
[29] = RPMI 5 mM glucose + 10% dialyzed FBS, 0.569 µM
[30] = RPMI 5 mM glucose + 10% dialyzed FBS, 1.71 µM
[31] = RPMI 5 mM glucose + 10% dialyzed FBS, 5.12 µM
[32] = RPMI 5 mM glucose + 10% dialyzed FBS, 15.4 µM
[33] = RPMI 5 mM glucose + 10% dialyzed FBS, 46.1 µM

SMILES | cell viability [1] [%] | cell viability [2] [%] | cell viability [3] [%] | cell viability [4] [%] | cell viability [5] [%] | cell viability [6] [%] | cell viability [7] [%] | cell viability [8] [%] | cell viability [9] [%] | cell viability [10] [%] | cell viability [11] [%] | cell viability [12] [%] | cell viability [13] [%] | cell viability [14] [%] | cell viability [15] [%] | cell viability [16] [%] | cell viability [17] [%] | cell viability [18] [%] | cell viability [19] [%] | cell viability [20] [%] | cell viability [21] [%] | cell viability [22] [%] | cell viability [23] [%] | cell viability [24] [%] | cell viability [25] [%] | cell viability [26] [%] | cell viability [27] [%] | cell viability [28] [%] | cell viability [29] [%] | cell viability [30] [%] | cell viability [31] [%] | cell viability [32] [%] | cell viability [33] [%]
O=P(O)(O)C(O)(Cn1ccnc1)P(=O)(O)O | 97.2 | 111 | 64 | 114 | 111 | 122 | 121 | 119 | 125 | 112 | 117 | 109 | 122 | 70.9 | 126 | 131 | 134 | 136 | 137 | 137 | 136 | 125 | 101 | 108 | 67.8 | 111 | 114 | 120 | 116 | 114 | 112 | 122 | 118
COc1ccc(C(=O)CC2(O)C(=O)Nc3c(Cl)ccc(Cl)c32)cc1 (stereo not given) | 102 | 114 | 114 | 114 | 117 | 124 | 120 | 106 | 55 | 19.6 | 14.5 | 107 | 104 | 117 | 109 | 116 | 125 | 118 | 106 | 55.8 | 14.1 | 12.9 | 98.9 | 116 | 126 | 115 | 120 | 128 | 122 | 105 | 81.9 | 25.4 | 27.5
CC[C@@H]([C@H](C)O)n1ncn(-c2ccc(N3CCN(c4ccc(OCC5CO[C@@](Cn6cncn6)(c6ccc(F)cc6F)C5)cc4)CC3)cc2)c1=O (stereo not given in full) | 102 | 99.8 | 101 | 96.3 | 98.3 | 91.1 | 100 | 92.2 | 90.8 | 84.9 | 85.1 | 101 | 102 | 104 | 97.8 | 95 | 102 | 92.3 | 91.1 | 92.1 | 88.3 | 82.6 | 87.2 | 98 | 95.1 | 97.9 | 90.9 | 87.7 | 85.7 | 89.8 | 85.1 | 83.5 | 75
Nc1c2c(nc3ccccc13)CCCC2 | 119 | 119 | 112 | 111 | 118 | 120 | 107 | 68.4 | 109 | 110 | 99 | 118 | 124 | 128 | 117 | 120 | 115 | 124 | 64.9 | 109 | 113 | 89.2 | 106 | 117 | 119 | 118 | 86.6 | 109 | 117 | 84.3 | 102 | 102 | 79.1
COC(=O)c1ccc2c(c1)NC(=O)/C2=C(\Nc1ccc(N(C)C(=O)CN2CCN(C)CC2)cc1)c1ccccc1 | 105 | 109 | 102 | 101 | 92.6 | 101 | 102 | 102 | 98.6 | 95.9 | 96.9 | 106 | 102 | 96.1 | 86 | 101 | 104 | 101 | 94 | 102 | 97.3 | 89.3 | 102 | 104 | 104 | 90.2 | 101 | 99 | 95.6 | 93.4 | 99.4 | 86.2 | 93.5
COc1cc2c(cc1OC)CN(CCc1ccc(NC(=O)c3cc(OC)c(OC)cc3NC(=O)c3cnc4ccccc4c3)cc1)CC2 | 114 | 122 | 115 | 114 | 110 | 113 | 111 | 102 | 65.6 | 62.8 | 44.4 | 124 | 112 | 112 | 120 | 112 | 118 | 105 | 92.7 | 64 | 54.1 | 47.5 | 114 | 106 | 116 | 114 | 113 | 114 | 99.4 | 92 | 56.4 | 56.6 | 46.5
O=C(CCCN1CCN(c2ccc(F)cc2)CC1)NC1c2ccccc2CSc2ccccc21 (stereo not given) | 120 | 125 | 123 | 119 | 121 | 120 | 117 | 119 | 109 | 102 | 71.4 | 126 | 121 | 119 | 126 | 131 | 123 | 136 | 119 | 97.4 | 83.5 | 55.1 | 123 | 122 | 122 | 120 | 120 | 115 | 121 | 110 | 100 | 77.7 | 59
CNC(=O)c1ccc(Nc2cc(Nc3ccccc3[S+](=O)([O-])C(C)C)c3cc[nH]c3n2)nc1 | 98.8 | 104 | 107 | 100 | 110 | 111 | 113 | 89.8 | 12.5 | 10.6 | 22.3 | 108 | 108 | 105 | 115 | 105 | 113 | 98.1 | 66.7 | 14.7 | 12.6 | 19.2 | 109 | 105 | 111 | 105 | 116 | 118 | 107 | 83.5 | 26.7 | 28.2 | 29.6
CC[C@H]1OC(=O)[C@H](C)C(=O)[C@H](C)[C@@H](O[C@H]2O[C@H](C)C[C@H](N(C)C)[C@H]2O)[C@](C)(OC)C[C@@H](C)C(=O)[C@H](C)[C@H]2N(CCCCn3cnc(-c4cccnc4)c3)C(=O)O[C@]12C | 102 | 119 | 98.3 | 115 | 120 | 116 | 99.1 | 98.3 | 104 | 96.1 | 96.1 | 103 | 109 | 111 | 115 | 122 | 104 | 88.3 | 89.5 | 103 | 105 | 96.5 | 111 | 122 | 140 | 147 | 130 | 82 | 63.3 | 89.9 | 114 | 92.6 | 97.5
Nc1ccc([S+](=O)([O-])Nc2ccnn2-c2ccccc2)cc1 | 105 | 103 | 103 | 109 | 111 | 102 | 105 | 106 | 105 | 110 | 107 | 95.9 | 101 | 98.3 | 96 | 108 | 115 | 108 | 106 | 100 | 109 | 107 | 86.1 | 98.7 | 97.7 | 92.9 | 105 | 99 | 98.2 | 112 | 103 | 106 | 96.7
CCc1ccc(/C=C2/SC(=S)NC2=O)cc1 | 84.2 | 87.7 | 79.6 | 88.1 | 90.9 | 80.1 | 91.5 | 84 | 85.3 | 60 | 88.1 | 82.4 | 84.6 | 76 | 88.9 | 82.8 | 77.7 | 85.1 | 87.3 | 84.8 | 46.1 | 87.9 | 77.4 | 83.8 | 81.7 | 81.2 | 87.1 | 76.6 | 87.3 | 83.5 | 81.9 | 38.1 | 90.4
O=C(c1ccccc1)c1ccc2n1CCC2C(=O)O (stereo not given) | 113 | 111 | 114 | 111 | 112 | 106 | 109 | 91.7 | 75.8 | 64.6 | 71.5 | 127 | 117 | 124 | 119 | 120 | 113 | 117 | 96.3 | 84.5 | 57.3 | 62.8 | 104 | 108 | 106 | 107 | 99.1 | 108 | 98.6 | 93.6 | 72.6 | 52.8 | 61.8
CC(C)c1cc(C(C)C)c(CC(=O)N[S+](=O)([O-])Oc2c(C(C)C)cccc2C(C)C)c(C(C)C)c1 | 103 | 106 | 103 | 106 | 103 | 104 | 104 | 103 | 101 | 97 | 89.7 | 105 | 102 | 104 | 96.8 | 102 | 96.9 | 109 | 96.8 | 102 | 97.6 | 76.9 | 99.5 | 108 | 105 | 105 | 110 | 101 | 98.3 | 90.1 | 99.1 | 89.2 | 87
CNc1nc(Nc2cnn([C@H]3CCN(C4COC4)C[C@@H]3F)c2Cl)ncc1C(F)(F)F | 91 | 100 | 108 | 108 | 102 | 92.9 | 98.5 | 53.3 | 24.9 | 30 | 28 | 93.9 | 106 | 99.6 | 106 | 115 | 112 | 115 | 99.1 | 54 | 22.2 | 39.2 | 100 | 103 | 110 | 120 | 115 | 111 | 114 | 93.1 | 54.3 | 34.8 | 38.1
CC(=O)Oc1ccccc1C(=O)Nc1ncc([N+](=O)[O-])s1 | 102 | 103 | 106 | 107 | 104 | 104 | 110 | 109 | 95.9 | 97.3 | 36.5 | 92.8 | 102 | 95.5 | 98.3 | 96 | 104 | 98.5 | 98.4 | 79.9 | 83.5 | 75.6 | 95.7 | 97.5 | 100 | 95.6 | 94.2 | 95.4 | 96.3 | 93.5 | 82 | 85.2 | 79.9
